One data set addresses Plasmin (Homo sapiens, UniProt P00747). The data set can be described thus: Anti-plasmin activity (inhibition of TAME hydrolysis). Type of data set: biochemical. Particulars: read-out: ID50, plasmin. The method, boiled down: (§1)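 Inhibition of enzymatic TAME (tosylarginine methyl ester) hydrolysis, per Muramatsu et al. Values are ID50, the molar concentration of compound inhibiting 50% of each enzyme's TAME-hydrolysing activity.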

Another data set deals with T1, Clr (Homo sapiens, UniProt P00736).
T1 sequence (P00736 464-705 limits assumed): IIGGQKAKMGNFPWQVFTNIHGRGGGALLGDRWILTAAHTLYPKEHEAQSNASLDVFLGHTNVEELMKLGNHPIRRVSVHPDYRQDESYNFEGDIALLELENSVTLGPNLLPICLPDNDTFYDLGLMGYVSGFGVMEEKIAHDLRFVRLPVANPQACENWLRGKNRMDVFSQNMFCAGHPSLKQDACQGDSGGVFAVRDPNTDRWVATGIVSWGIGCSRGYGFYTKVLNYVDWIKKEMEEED
T1 sequence (P00736 18-463 limits assumed): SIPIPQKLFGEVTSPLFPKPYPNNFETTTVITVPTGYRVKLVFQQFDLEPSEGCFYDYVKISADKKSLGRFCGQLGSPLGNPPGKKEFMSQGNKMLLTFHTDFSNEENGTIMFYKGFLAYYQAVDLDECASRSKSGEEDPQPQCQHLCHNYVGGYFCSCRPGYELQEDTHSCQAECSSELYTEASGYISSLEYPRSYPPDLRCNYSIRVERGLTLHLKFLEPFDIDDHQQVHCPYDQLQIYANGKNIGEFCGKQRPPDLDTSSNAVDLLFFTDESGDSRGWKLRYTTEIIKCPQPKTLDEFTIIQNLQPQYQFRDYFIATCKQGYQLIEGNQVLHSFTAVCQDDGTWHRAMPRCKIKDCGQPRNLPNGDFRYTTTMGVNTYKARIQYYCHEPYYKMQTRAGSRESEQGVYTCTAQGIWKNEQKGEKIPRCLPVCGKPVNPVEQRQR
Briefly: Anti-Cl esterase activity, Clr (AAME hydrolysis). In kind it is biochemical. To be noted: hydrolysis of AAME; read-out: Anti-Cl activity, Clr (ID50). The protocol:
The anti-Cl esterase ([…]) activity was determined according to the method of Okamura et al. [K. Okamura, M. Muramatsu and B. Fujii, Biochem. Biophys.

The next data set deals with Masugi nephritis. The data set can be described thus: Therapeutic experiment on Masugi's nephritis (protein content of urine). In kind it is in vivo. Particulars: rats; for Percentage inhibition (decrease in protein content of urine): methanesulfonate, oral 100 mg/kg twice a day, eight days. An excerpt: The protein content of the animal's urine is used as the parameter for the progress of Masugi nephritis. […] From the result, it may be said that the compound of this invention having a Cl-esterase inhibitory activity is useful as a remedy for the glomerulonephritis and is also useful as a remedy for autoimmune diseases inclusive of glomerulonephritis.
Experimental nephritis were induced in rats by intravenous injection of nephrotoxin prepared according to the method of Shibata et al. ["Experimental Immunoallergy.", p. 664 (1971), Bunkodo, Tokyo]. Each member of the medicine administered group had been orally administered with methanesulfonate of Compound No. 69 at a dose rate of 100 mg/kg body weight, twice a day, for eight consecutive days. On the second day from the beginning of medicine administration, nephrotoxin was intravenously administered. The effectiveness was evaluated by determining the difference in protein content of urine between the nephritic group (control group) and the medicine administered group on the 6th day (5th day after the administration of nephrotoxin) and 9th day from the beginning of medicine administration.
The percentage inhibition indicates the degree of decrease in protein content of urine of the medicine administered group as compared with the control group.

The next data set has as its target T2, Trypsin (Bos taurus, UniProt P00760).
T2 sequence (P00760 24-246): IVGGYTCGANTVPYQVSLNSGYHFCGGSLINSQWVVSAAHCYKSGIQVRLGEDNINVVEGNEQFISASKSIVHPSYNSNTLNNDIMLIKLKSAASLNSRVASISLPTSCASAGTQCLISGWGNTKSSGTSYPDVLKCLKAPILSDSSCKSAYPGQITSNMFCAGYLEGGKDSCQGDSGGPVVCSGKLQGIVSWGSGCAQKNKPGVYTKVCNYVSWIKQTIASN
Briefly: Anti-trypsin activity (inhibition of TAME hydrolysis). In kind it is biochemical. Particulars: read-out: ID50, trypsin. Summed up:
as §1

For a further data set, the target named is T3, Cls (Homo sapiens, UniProt P09871).
T3 sequence (P09871 438-688 limits assumed): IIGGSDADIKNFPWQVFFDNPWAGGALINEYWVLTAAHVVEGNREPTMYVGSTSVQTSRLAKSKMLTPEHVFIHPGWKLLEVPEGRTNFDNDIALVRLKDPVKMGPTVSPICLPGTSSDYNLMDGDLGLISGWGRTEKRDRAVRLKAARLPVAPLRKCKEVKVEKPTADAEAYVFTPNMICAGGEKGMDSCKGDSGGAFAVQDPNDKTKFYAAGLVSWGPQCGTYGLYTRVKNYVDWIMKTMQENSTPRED
T3 sequence (P09871 16-437 limits assumed): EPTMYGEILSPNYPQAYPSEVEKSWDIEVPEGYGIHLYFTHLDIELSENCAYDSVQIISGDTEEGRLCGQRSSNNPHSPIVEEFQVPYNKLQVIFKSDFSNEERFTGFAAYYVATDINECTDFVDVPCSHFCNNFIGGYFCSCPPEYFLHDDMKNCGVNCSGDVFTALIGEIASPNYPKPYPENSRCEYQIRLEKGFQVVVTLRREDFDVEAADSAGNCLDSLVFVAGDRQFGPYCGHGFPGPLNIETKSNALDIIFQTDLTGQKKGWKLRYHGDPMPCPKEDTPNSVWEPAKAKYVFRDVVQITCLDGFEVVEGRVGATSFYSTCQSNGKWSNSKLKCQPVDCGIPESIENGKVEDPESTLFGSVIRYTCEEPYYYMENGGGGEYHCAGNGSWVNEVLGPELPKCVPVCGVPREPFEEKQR
The data set can be described thus: Anti-Cl esterase activity, Cls (ATEE hydrolysis). In kind it is biochemical. To be noted: hydrolysis of ATEE; read-out: Anti-Cl activity, Cls (50% inhibition). As to the method: The anti-Cl esterase (Clr, Cls) activity was determined according to the method of Okamura et al. [K. Okamura, M. Muramatsu and B. Fujii, Biochem. Biophys. […] The figures in Table 2 have the following meanings:
Cls: Molar concentration of the test compound which inhibits 50% of the ability of Cls to hydrolyse ATEE (acetyltyrosin ethyl ester).

Data set [1] is described as follows: Toxicity, median lethal dose (LD50). To be noted: in vivo.
A further data set concerns complement. The data set can be described thus: Inhibition of complement mediated hemolysis. Type of data set: cell-based.
In the next data set the target is Thrombin (Homo sapiens, UniProt P00734). The data set can be described thus: biochemical. To be noted: TAME hydrolysis; read-out: ID50, thrombin.
For a further data set, the system named is Kallikrein. The data set can be described thus: Anti-kallikrein activity (inhibition of TAME hydrolysis). Type of data set: biochemical. To be noted: read-out: ID50, kallikrein. Summed up: as §1

Sequence of Plasmin (P00747 581-810 limits assumed, species assumed): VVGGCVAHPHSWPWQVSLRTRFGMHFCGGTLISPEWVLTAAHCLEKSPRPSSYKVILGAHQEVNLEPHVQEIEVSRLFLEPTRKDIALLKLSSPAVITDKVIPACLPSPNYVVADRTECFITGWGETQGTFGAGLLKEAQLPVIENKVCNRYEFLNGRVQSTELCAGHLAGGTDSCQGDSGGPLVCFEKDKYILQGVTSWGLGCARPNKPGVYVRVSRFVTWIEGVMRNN
Sequence of Plasmin (P00747 97-580 limits assumed, species assumed): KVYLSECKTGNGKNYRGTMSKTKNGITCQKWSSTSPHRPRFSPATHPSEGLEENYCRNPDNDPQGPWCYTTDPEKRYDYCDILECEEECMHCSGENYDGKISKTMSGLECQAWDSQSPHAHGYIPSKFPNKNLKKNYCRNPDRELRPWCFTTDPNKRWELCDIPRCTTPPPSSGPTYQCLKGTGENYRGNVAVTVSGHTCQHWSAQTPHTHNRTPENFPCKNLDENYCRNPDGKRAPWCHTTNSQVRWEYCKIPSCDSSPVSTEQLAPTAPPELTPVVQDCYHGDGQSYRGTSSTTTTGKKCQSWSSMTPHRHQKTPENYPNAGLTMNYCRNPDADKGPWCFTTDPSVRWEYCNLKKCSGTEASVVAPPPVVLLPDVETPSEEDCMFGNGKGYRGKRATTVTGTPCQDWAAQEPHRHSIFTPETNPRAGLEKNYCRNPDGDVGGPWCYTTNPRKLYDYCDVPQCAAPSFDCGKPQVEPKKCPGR

A word on the LD50: it is the dose at which mortality reaches 50%. Low values mean greater toxicity, high ones lower toxicity. For `N=C(N)Nc1ccc(C(=O)Oc2ccc(C(=N)N)cc2C(=O)c2ccccc2)cc1` [Compound 69, 4-amidino-2-benzoylphenyl 4-guanidinobenzoate], the IC50 at Plasmin came to 2000 nM; at Clr it was 2000 nM; at Trypsin, 80 nM; at Cls, 400 nM; on Thrombin, 200 nM; with Kallikrein, 400 nM. Besides, the results for the “Percentage inhibition (decrease in protein content of urine)” value in the data set on Masugi nephritis (5th day) and in the data set on Masugi nephritis (8th day) were 81% and 39%, respectively. The “protein content of urine, Masugi nephritis” value in the data set on Masugi nephritis (result in words) is “distinctly decreased the protein content of urine”. Moreover, the figures for the LD50 in [1] (ip) and in data set [1] (po) were 192 mg/kg and 1700 mg/kg, respectively. In addition, the “Inhibition of complement mediated hemolysis (%)” value is given as 100% in the data set with complement (compound at 1 × 10^-4), 99.6% with complement (compound at 1 × 10^-5), 86.5% with complement (compound at 1 × 10^-6) and 7.2% in the data set on complement (compound at 1 × 10^-7).

For the compound `N=C(N)Nc1ccc(C(=O)Oc2ccc(C(=N)N)cc2[N+](=O)[O-])cc1` [Compound 70, 4-amidino-2-nitrophenyl 4-guanidinobenzoate], the IC50 on Plasmin came to 700 nM; at Clr, 3000 nM; at Trypsin, 30 nM; at Cls it was 200 nM; at Thrombin it was 500 nM; in the data set on Kallikrein, 40000 nM. Further, the LD50 in [1] (ip) was 200 mg/kg; in data set [1] (po) it was 2500 mg/kg. Further, the “Inhibition of complement mediated hemolysis (%)” value is 100% in the data set on complement (compound at 1 × 10^-4), 100% in the data set on complement (compound at 1 × 10^-5), 97.0% in the data set with complement (compound at 1 × 10^-6) and 46.1% in the data set with complement (compound at 1 × 10^-7).

(Values after US4570006A, “Amidine compound, process for producing same and anti-complement agent comprising same” (Torii & Co. Ltd., priority 1981, dated 1986).)
